Values quoted from earlier work as cited in patent US20250064896A1, “METHODS, COMPOSITIONS AND USES FOR TREATING CANCER BY PROVIDING MEDICATIONS THAT INDUCE TARGETED TUMOR CELL MITOSIS BEFORE PROVIDING CHEMOTHERAPY OR RADIATION AND KITS THEREFOR” (MAISON AMORI OQVPO LLC, priority 2022, published 2025).
Like-named read-outs stand apart in the source and are kept apart here.

What was measured:
[1] = patients randomized to bicalutamide versus placebo
[2] = system: metastatic hormone sensitive prostate cancer (MHSPC); conditions: for median actuarial freedom from Castrate Resistant Prostate Cancer (CRPC): p=0.04; for overall survival: p=0.2
[3] = system: locally advanced prostate cancer
[4] = system: locally advanced prostate cancer; conditions: for overall survival at 5 years: P=0.73
[5] = system: locally advanced prostate cancer; conditions: goserelin 3.6 mg every 4 weeks and flutamide 250 mg tid, 2 months before and concurrent with RT
[6] = system: prostate cancer (salvage setting); conditions: goserelin provided on the first day of radiation
testosterone levels [7] = system: testosterone levels
[8] = in vivo
[9] = system: serum concentrations of LH and testosterone
testosterone levels [10] = conditions: week 2 from initiation of leuprolide; injections once every 3 months; advanced prostate cancer
[11] = system: metastatic adenocarcinoma of the prostate
[12] = in vivo; remark: listed apart in the source
[13] = arm I: irradiation plus goserelin started in the last week of radiation

In the case of `CC(O)(CS(=O)(=O)c1ccc(F)cc1)C(=O)Nc1ccc(C#N)c(C(F)(F)F)c1` (centres unmarked) [bicalutamide], the “erectile dysfunction compared to placebo” value [1] is given as “non-statistically significant difference”.

In the case of `CC(=O)O[C@@]12CO[C@@H]1C[C@H](O)[C@@]1(C)C(=O)[C@H](O)C3=C(C)[C@@H](OC(=O)[C@H](O)[C@@H](NC(=O)OC(C)(C)C)c4ccccc4)C[C@@](O)([C@@H](OC(=O)c4ccccc4)[C@H]21)C3(C)C` [docetaxel], the “overall survival versus LHRH therapy alone” value ([2]; docetaxel given at the beginning of LHRH therapy, MHSPC) is given as “significantly longer”, the “median actuarial freedom from Castrate Resistant Prostate Cancer (CRPC)” value ([2]; docetaxel started 1-6 days from LHRH initiation) is given as 51 months and the overall survival ([2]; docetaxel started 1-6 days from initiation of LHRH agonist) is given as 72 months. For the same compound, the “median actuarial freedom from Castrate Resistant Prostate Cancer (CRPC)” value ([2]; docetaxel started >14 days from LHRH initiation) was 18 months and the overall survival ([2]; docetaxel started >14 days from initiation of LHRH agonist) was 57 months.

In the case of `CC(C)C[C@H](NC(=O)[C@@H](COC(C)(C)C)NC(=O)[C@H](Cc1ccc(O)cc1)NC(=O)[C@H](CO)NC(=O)[C@H](Cc1c[nH]c2ccccc12)NC(=O)[C@H](Cc1cnc[nH]1)NC(=O)[C@@H]1CCC(=O)N1)C(=O)N[C@@H](CCCNC(=N)N)C(=O)N1CCC[C@H]1C(=O)NNC(N)=O` [goserelin], the 10-year overall survival ([3]; combined treatment, radiotherapy alone 39.8%, p=0.0004) is given as 58.1%, the “survival, hormonal therapy added to radiation compared to radiation alone” value ([3]; external irradiation plus goserelin) is given as “survival benefit” and the five-year overall survival ([3]; irradiation plus goserelin from first day for 3 years, antiandrogen for 1 month, radiotherapy alone 62%, p=0.0002) is given as 78%. The “10-year absolute survival rate” value (prostate cancer; arm 1 versus control arm 39%, p=0.002) was 49%, the “5-year absolute survival rate” value (prostate cancer; [13]) was 72% and the “9-year absolute survival rate” value (prostate cancer; [13]) was 62%. The “overall survival at 5 years” value ([4]; 24 months of goserelin after 4 months of goserelin and flutamide with RT) was 80.0%, the “overall survival between the two treatment arms” value ([4]; 24 months of goserelin versus no further treatment) was “not significantly different” and the “overall survival at 5 years” value ([4]; no further treatment after 4 months of goserelin and flutamide with RT) was 78.5%. For the same compound, the “survival, combined ADT with RT versus RT alone” value [5] was “no significant difference” and the “survival, ADT in the salvage setting” value [6] was “survival benefit”.

For `CCNC(=O)[C@@H]1CCCN1C(=O)[C@H](CCCNC(=N)N)NC(=O)[C@H](CC(C)C)NC(=O)[C@@H](CC(C)C)NC(=O)[C@H](Cc1ccc(O)cc1)NC(=O)[C@H](CO)NC(=O)[C@H](Cc1c[nH]c2ccccc12)NC(=O)[C@H](Cc1c[nH]cn1)NC(=O)[C@@H]1CCC(=O)N1` [leuprolide], the “median testosterone levels remained above castrate levels (0.5 ng/ml) until” value (testosterone levels [7]; after initiation of leuprolide) is listed as 21 days, the “median testosterone levels increase from baseline” value (testosterone levels [7]; by day 3 after initiation of monthly leuprolide, P<0.001) is listed as 65% and the median testosterone level (testosterone levels [7]; day 3 after initiation of leuprolide) is listed as 6.30 ng/mL. The “leuprolide blood levels, intranasal versus intravenous route” value [8] was “much lower”, the “duration of elevation of testosterone levels” value ([9]; after LHRH analogue application) was 7 days and the “duration of increase in relative LH values” ([9]; after LHRH analogue injection) was 7 days. The maximum testosterone level ([9]; day 2 after LHRH analogue application) was 145±13%, the “maximum relative LH value” ([9]; day 2 after LHRH analogue injection, means±standard error, 16 patients with advanced prostatic cancer) was 345±108% and the “testosterone levels higher compared to baseline” value (testosterone levels [10]) was “about 50%”.

For `C[C@]12CC[C@H]3[C@@H](CCC4=CC(=O)CC[C@@]43C)[C@@H]1CC[C@@H]2O` [testosterone], the “patients with unfavorable subjective and/or objective responses” value ([11]; 52 patients treated with exogenous testosterone daily) is listed as 87%, the “serious morbidity or mortality, seemingly due to the testosterone administration” value ([11]; eight cases of 52 patients) is listed as 15% and the half-life [12] is listed as 7 days.
